Common to all, as to format: biochemical
Test [1] has as its target CDK2/CCNE1 (Homo sapiens, UniProt P24941). Description: CDK2 homogeneous time-resolved fluorescence (HTRF) kinase assay. The method in brief:
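CDK2/CCNE1 (3 nM) preincubated 20 min at 23 °C with compound, then reacted 60 min at 23 °C with 1 mM ATP and 50 nM ULight-4E-BP1 (Thr37/46) peptide. Stopped with EDTA, phospho-peptide detected by Eu-anti-phospho antibody (665 nm or 665/615 ratio). IC50 from 11-point half-log titrations typically starting at 10 μM.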
A general note: In TR-FRET formats the signal depends on donor and acceptor labels being close together.

Test [2] has as its target CDK1/CCNB1 (Homo sapiens, UniProt P06493). Description: CDK1 homogeneous time-resolved fluorescence (HTRF) kinase assay. The method in brief:
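HTRF assay with 0.5 nM CDK1/CCNB1, 1 mM ATP, 50 nM ULight-eIF4E-BP1 (Thr37/46) peptide; compound preincubated 20 min, reaction 60 min at 23 °C, EDTA stop, Eu-anti-phospho antibody detection. 11-point half-log titration from 10 μM, 1% DMSO; IC50 from 665 nm or 665/615 signal.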

Test [3] deals with CDK6/CCND1 (Homo sapiens, UniProt Q00534). Nature of the test: CDK6 homogeneous time-resolved fluorescence (HTRF) kinase assay. The note with it: CDK6/CCND. As for the experimental part:
A CDK homogeneous time-resolved fluorescence (HTRF) assay was used to assess the potency of the compounds described herein.
To an untreated 384-well microtiter plate (ProxiPlate) was added 100 nL 100×test compound in DMSO and 5 μL 2×CDK enzyme in assay buffer (50 mM HEPES, 1 mM EGTA, 10 mM MgCl2, 0.01% Tween 20, 2 mM DTT). The plate was centrifuged at 800 RPM for 1 min then incubated for 20 min at 23 °C. 2.5 μL per well of 4×ATP and 2.5 μL 4×ULight™-eIF4E-binding protein 1 (Thr37/46) Peptide substrate were added to all wells. After addition, the plates were centrifuged at 800 RPM for 1 min. The plates were incubated at 23 °C for 60 min. 5 μL per well 4×EDTA solution were added to each well to stop the reaction. 5 μL 4×LANCE Ultra Europium-anti-phospho-eIF4E-binding protein 1 (Thr37/46) antibody were added to each well and the plate was centrifuged for 1 min at 800 RPM. The plate was incubated for 60 min at 23 °C. Fluorescence was read at 340 nm excitation and 665 nm emission on an EnVision 2105 fluorescence reader. The final concentrations of reagents in the activity assay were 1 nM CDK6/CCND1, 1 mM ATP, 50 nM ULight™-eIF4E-binding protein 1 (Thr37/46) Peptide substrate, 1% DMSO, 10 mM EDTA, and 2 nM LANCE Ultra Europium-anti-phospho-eIF4E-binding protein 1 (Thr37/46).
Dose-response titrations were conducted by using an 11-point, half-logarithmic serial dilution scheme typically starting at 10 μM. Signals were reported as fluorescence units at 665 nm or the ratio of fluorescence units at 665 nm/fluorescence units at 615 nm. Signals are referred to below as “Lance signals”.
Using this assay, the IC50 values of example compounds were determined. Table 3 illustrates the IC50 for various Example compounds of Formula IA. Table 4 illustrates the IC50 for various other Example compounds of Formula I. ND=not determined.

Setting [4] is: >250 nM marked x, read-out: CDK6/CCND IC50 >250 nM.
Where [5] appears, read: x = IC50 25-250 nM, read-out: CDK6/CCND IC50 (25-250 nM).
[6] abbreviates: x = IC50 >250 nM, read-out: CDK6/CCND IC50 (>250 nM column).
Where [7] appears, read: 3 nM CDK2/CCNE1, 1 mM ATP, read-out: CDK2/CCNE IC50 25-250 nM.
[8] abbreviates: 0.5 nM CDK1/CCNB1, 1 mM ATP, read-out: CDK1/CCNB IC50 >250 nM.
[9] abbreviates: 3 nM CDK2/CCNE1, 1 mM ATP, read-out: CDK2/CCNE IC50 >250 nM.

Where two headings read alike, the source gives them in different places.

Chain of CDK1/CCNB1 (P06493 whole entry): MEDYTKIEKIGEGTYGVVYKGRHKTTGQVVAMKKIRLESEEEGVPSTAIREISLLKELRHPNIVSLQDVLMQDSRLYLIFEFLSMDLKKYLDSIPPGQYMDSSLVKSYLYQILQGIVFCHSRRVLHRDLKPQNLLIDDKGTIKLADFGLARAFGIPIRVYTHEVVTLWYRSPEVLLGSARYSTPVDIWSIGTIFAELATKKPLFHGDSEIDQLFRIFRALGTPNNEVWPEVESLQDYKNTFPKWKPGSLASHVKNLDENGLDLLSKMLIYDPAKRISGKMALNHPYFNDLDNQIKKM
Chain of CDK1/CCNB1 (P14635 whole entry partner): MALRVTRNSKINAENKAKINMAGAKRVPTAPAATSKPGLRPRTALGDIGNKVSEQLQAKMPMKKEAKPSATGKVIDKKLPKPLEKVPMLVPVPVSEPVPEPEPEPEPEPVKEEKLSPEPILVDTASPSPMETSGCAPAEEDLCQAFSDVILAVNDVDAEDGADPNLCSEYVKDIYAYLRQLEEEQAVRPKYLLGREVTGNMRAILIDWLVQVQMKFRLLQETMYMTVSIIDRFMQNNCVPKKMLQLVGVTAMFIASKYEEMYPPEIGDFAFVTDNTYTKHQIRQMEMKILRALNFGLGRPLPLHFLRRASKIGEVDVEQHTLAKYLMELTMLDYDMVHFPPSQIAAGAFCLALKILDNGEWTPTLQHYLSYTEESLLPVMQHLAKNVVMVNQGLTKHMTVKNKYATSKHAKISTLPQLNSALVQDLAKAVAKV
Chain of CDK6/CCND1 (Q00534 whole entry): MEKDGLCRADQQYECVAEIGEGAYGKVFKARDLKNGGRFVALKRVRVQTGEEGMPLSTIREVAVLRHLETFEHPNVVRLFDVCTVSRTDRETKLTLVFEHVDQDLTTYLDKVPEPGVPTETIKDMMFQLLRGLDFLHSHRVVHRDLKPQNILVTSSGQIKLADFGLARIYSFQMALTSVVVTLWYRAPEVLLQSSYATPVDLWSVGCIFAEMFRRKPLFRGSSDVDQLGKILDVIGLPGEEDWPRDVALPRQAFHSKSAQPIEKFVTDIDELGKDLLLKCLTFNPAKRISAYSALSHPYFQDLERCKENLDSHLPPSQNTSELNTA
Chain of CDK6/CCND1 (P24385 whole entry partner): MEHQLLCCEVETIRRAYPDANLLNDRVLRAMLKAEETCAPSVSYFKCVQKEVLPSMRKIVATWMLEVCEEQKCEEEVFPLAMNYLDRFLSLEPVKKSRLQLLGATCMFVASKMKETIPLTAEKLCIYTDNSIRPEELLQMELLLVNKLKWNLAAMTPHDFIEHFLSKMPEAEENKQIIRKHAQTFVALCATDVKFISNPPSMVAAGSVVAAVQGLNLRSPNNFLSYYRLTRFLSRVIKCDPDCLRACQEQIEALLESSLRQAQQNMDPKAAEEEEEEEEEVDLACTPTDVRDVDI

On to `CS(=O)(=O)N1CCC(Nc2cc3c(C(=O)N4CCCC(O)C4)nccc3cn2)CC1` (racemic) [Ex 95, (3-hydroxypiperidin-1-yl)(7-((1-(methylsulfonyl)piperidin-4-yl)amino)-2,6-naphthyridin-1-yl)methanone], for which the IC50 in test [1] (CDK2/CCNE, >250 nM marked x, read-out: CDK2/CCNE IC50 >250 nM) was greater than 250 nM; in test [2] (CDK1/CCNB, >250 nM marked x, read-out: CDK1/CCNB IC50 >250 nM) it was greater than 250 nM; in test [3] (<25 nM, read-out: CDK6/CCND IC50 <25 nM) it was less than 25 nM.

`CC(C)S(=N)(=O)c1ccc(Nc2cc3c(C#Cc4ccc5c(c4)NC(=O)C5(C)CCO)nccc3cn2)cc1` (single isomer, unassigned) [Ex 287, 3-(2-hydroxyethyl)-3-methyl-6-((7-((4-(propan-2-ylsulfonimidoyl)phenyl)amino)-2,6-naphthyridin-1-yl)ethynyl)indolin-2-one]: in test [3] (setting [4]), the IC50 is greater than 250 nM.

Regarding `CC(C)S(=N)(=O)c1ccc(Nc2cc3c(C#Cc4ccc5c(c4)NC(=O)C5(C)O)nccc3cn2)cc1` (single isomer, unassigned) [Ex 292, 3-hydroxy-3-methyl-6-((7-((4-(propan-2-ylsulfonimidoyl)phenyl)amino)-2,6-naphthyridin-1-yl)ethynyl)indolin-2-one], in test [3] (setting [4]), the IC50 is greater than 250 nM.

Take `CS(=N)(=O)c1ccc(Nc2cc3c(C#Cc4ccc5c(c4)NC(=O)C54CC4)nccc3cn2)cc1` (single isomer, unassigned) [Ex 359, 6'-((7-((4-(S-methylsulfonimidoyl)phenyl)amino)-2,6-naphthyridin-1-yl)ethynyl)spiro[cyclopropane-1,3'-indolin]-2'-one]: the IC50 in test [3] (setting [5]) was in the range of 25 to 250 nM.

On to `N=S(=O)(c1ccc(Nc2cc3c(C#Cc4ccc5c(c4)NC(=O)C54CCC4)nccc3cn2)cc1)C1CC1` (single isomer, unassigned) [Ex 365, 6'-((7-((4-(cyclopropanesulfonimidoyl)phenyl)amino)-2,6-naphthyridin-1-yl)ethynyl)spiro[cyclobutane-1,3'-indolin]-2'-one], for which, in test [3] (setting [5]), the IC50 lay in the range of 25 to 250 nM.

Take `CCS(=N)(=O)c1ccc(Nc2cc3c(C#Cc4ccc5c(c4)NC(=O)C54CCC4)nccc3cn2)cc1` (single isomer, unassigned) [Ex 367, 6'-((7-((4-(ethylsulfonimidoyl)phenyl)amino)-2,6-naphthyridin-1-yl)ethynyl)spiro[cyclobutane-1,3'-indolin]-2'-one]: the IC50 in test [3] (setting [6]) was greater than 250 nM.

Regarding `CC1(C)C(=O)Nc2cc(C#Cc3nccc4cnc(Nc5ccc(S(C)(=N)=O)cc5)cc34)ccc21` (single isomer, unassigned) [Ex 452, 3,3-dimethyl-6-((7-((4-(S-methylsulfonimidoyl)phenyl)amino)-2,6-naphthyridin-1-yl)ethynyl)indolin-2-one], the IC50 in test [3] (setting [5]) lay within 25 to 250 nM.

As to `CC1(C)C(=O)Nc2cc(C#Cc3nccc4cnc(Nc5ccc(S(=N)(=O)C6CCC6)cc5)cc34)ccc21` (single isomer, unassigned) [Ex 453, 6-((7-((4-(cyclobutanesulfonimidoyl)phenyl)amino)-2,6-naphthyridin-1-yl)ethynyl)-3,3-dimethylindolin-2-one], the IC50 in test [1] (CDK2/CCNE, x = IC50 <25 nM, read-out: CDK2/CCNE IC50 (<25 nM)) was less than 25 nM; in test [2] (CDK1/CCNB, x = IC50 <25 nM, read-out: CDK1/CCNB IC50 (<25 nM)), less than 25 nM; in test [3] (setting [5]), 25 to 250 nM.

As to `CC(C)S(=N)(=O)c1ccc(Nc2cc3c(C#Cc4ccc5c(c4)NC(=O)C5(C)C)nccc3cn2)cc1` (single isomer, unassigned) [Ex 456, 3,3-dimethyl-6-((7-((4-(propan-2-ylsulfonimidoyl)phenyl)amino)-2,6-naphthyridin-1-yl)ethynyl)indolin-2-one], the IC50 in test [3] (setting [6]) is greater than 250 nM.

As to `CC1(CO)C(=O)Nc2cc(C#Cc3nccc4cnc(Nc5ccc(S(C)(=O)=O)cc5)cc34)ccc21` (single isomer, unassigned) [Example 373, 3-(hydroxymethyl)-3-methyl-6-((7-((4-(methylsulfonyl)phenyl)amino)-2,6-naphthyridin-1-yl)ethynyl)indolin-2-one], the IC50 in test [3] (setting [6]) was greater than 250 nM.

As for `Cc1c(-c2nccc3cnc(Nc4ccc(S(C)(=N)=O)cc4)cc23)ccc2nn(C)cc12` (single isomer, unassigned) [Example 546, (4-((5-(2,4-dimethyl-2H-indazol-5-yl)-2,6-naphthyridin-3-yl)amino)phenyl)(imino)(methyl)-λ^6-sulfanone], the IC50 in test [3] (setting [6]) was greater than 250 nM.

On to `Cc1c(-c2nccc3cnc(Nc4ccc(S(=O)(=O)Nc5cc(F)cc(C(C)(C)O)c5)cc4)cc23)ccc2c1cnn2CC(C)(C)O` [Ex 801, N-(3-fluoro-5-(2-hydroxypropan-2-yl)phenyl)-4-((5-(1-(2-hydroxy-2-methylpropyl)-4-methyl-1H-indazol-5-yl)-2,6-naphthyridin-3-yl)amino)benzenesulfonamide], for which the IC50 in test [1] (<25 nM, CDK2/CCNE, read-out: CDK2/CCNE IC50, <25 nM) was less than 25 nM; in test [2] (>250 nM, CDK1/CCNB, read-out: CDK1/CCNB IC50 >250 nM), greater than 250 nM; in test [3] (>250 nM, 1 mM ATP, read-out: CDK6/CCND IC50, >250 nM), greater than 250 nM.

`CS(=O)(=O)c1ccc(Nc2ncc3cccc(C4=CCCCC4)c3n2)cc1` [Example 952, 8-(cyclohex-1-en-1-yl)-N-(4-(methylsulfonyl)phenyl)quinazolin-2-amine]: the results for the IC50 in test [1] (setting [7]) and in test [2] (setting [8]) were 25 to 250 nM and greater than 250 nM, respectively.

With `CS(=O)(=O)c1ccc(Nc2cc3c(N4CCC(C#N)CC4)ccnc3cn2)cc1` [Example 959, 1-(6-((4-(methylsulfonyl)phenyl)amino)-1,7-naphthyridin-4-yl)piperidine-4-carbonitrile], the IC50 in test [1] (setting [9]) and in test [2] (setting [8]) was greater than 250 nM in each case.

For the compound `CS(=O)(=O)c1ccc(Nc2cc3c(N4CCC(C#N)CC4)ncnc3cn2)cc1` [Example 960, 1-(6-((4-(methylsulfonyl)phenyl)amino)pyrido [3,4-d]pyrimidin-4-yl)piperidine-4-carbonitrile], the IC50 in test [1] (setting [9]) and in test [2] (setting [8]) was greater than 250 nM throughout.

Consider `CS(=O)(=O)c1ccc(Nc2ncc3cccc(N4CCC(C#N)CC4)c3n2)cc1` [Example 961, 1-(2-((4-(methylsulfonyl)phenyl)amino)quinazolin-8-yl) piperidine-4-carbonitrile], for which the IC50 in test [1] (setting [7]) is 25 to 250 nM; in test [2] (setting [8]) it was greater than 250 nM.

The record behind these values is patent publication US20260325533A1, “CDK INHIBITOR COMPOUNDS” (ALEKSIA THERAPEUTICS, INC., priority 2023, published 2026).
